{"source": "patent US20260365855A1", "about": "“TARGETED QUINOCYANINE DYES FOR THE INTRAOPERATIVE DELINEATION OF CANCER MARGINS” (THE TRUSTEES OF THE UNIVERSITY OF PENNSYLVANIA, priority 2022, published 2026)", "key": {"[1]": {"assay": "NIR-II fluorescence of compound 1 vs. JAS239 and ICG (plate imaging, IR Vivo)", "type": "physicochemical", "conditions": "for NIR-II emissions; excitation requirement: discussion of NIR-I fluorophores, require excitation with a NIR-I laser; for NIR-II emission: emission 1,000-1,250 nm, DMSO, no tissue", "experimental": "NIR-II Fluorescence of Compound 1 vs. JAS239 and ICG.\nCompound 1, JAS239, and ICG were dissolved in DMSO and added to a 96-well black-well clear-bottom plate at concentrations from 1 μM to 100 μM. The plate was then imaged using the PhotonEtc IR Vivo using the NIR-II emission filter (1000-1250 nm) with excitation at 760 nm, 808 nm, 890 nm, or 940 nm.\nDyes were excited with excitation lasers at 760, 808, 890, and 940 nm and emissions were measured between 1,000 and 1,250 nm."}, "Athymic Nu/Nu mice": {"tested_on": "Athymic Nu/Nu mice", "assay": "In vivo imaging after tail vein injection", "conditions": "40 nmol via tail vein", "experimental": "Athymic Nu/Nu mice were injected with 40 nmol compound 1 through the tail vein in Normal Saline and filtered through a 0.22 μm filter."}, "Absorbance spectra": {"assay": "Absorbance spectra", "type": "physicochemical", "conditions": "5 μM in DMSO", "experimental": "Absorbance spectra. The absorbances for compound 1 and compound 2 were obtained using a PerkinElmer Lambda 5 measuring absorbances in 1 nm steps from 500 to 1100 nm. The absorbance spectrum for compound 3 was obtained using a JASCO VI 70 measuring in 1 nm steps from 850 to 1150 nm. All compounds were dissolved in DMSO at a concentration of 5 μM.\nSynthesis of compound 1, compound 2 and compound 3 was verified by MALDI-TOF mass spectrometry with further confirmation by ^1H-NMR."}, "Emission spectra": {"assay": "Emission spectra", "type": "physicochemical", "conditions": "for NIR-II fluorescence: absorbance and emission spectra, DMSO", "experimental": "Emission spectra. The emissions for compounds 1, 2 and 3 were obtained using a Horiba QuantaMaster with excitation at 900 nm and emissions recorded in 1 nm steps from 925 to 1300 nm. […]\nCompound 3 has a maximum absorbance at 942 nm and maximum emission at 979 nm. The emission intensities were determined with excitation at 900 nm."}, "KLN 205 cells": {"tested_on": "KLN 205 cells", "assay": "Cell uptake (NIR-II emission of cell lysates)", "type": "cell-based", "conditions": "10 μM, 2 h, 37 °C; lysed with 0.5% Triton X-100", "experimental": "KLN 205 cells were seeded into an 8 chamber slide at 15,000 cells/well. Cells were incubated overnight at 37 °C and 5% CO2. Cells were then treated in 500 μL with 10 μM of compound 1, compound 2 or compound 3, or with vehicle (DMSO). The slide was incubated for 2 hours with treatment at 37 °C and 5% CO2.\nFollowing treatment, the solution was aspirated, and cells were rinsed twice with 500 μL of ice-cold DPBS. Triton X-100 was diluted to be 0.5% Triton, and 500 μL of this solution were added to each chamber for 10 min at 37 °C and 5% CO2 to lyse the cells. 100 μL were removed from each chamber and added to a 96-well black-well clear-bottom plate. The plate was then imaged for NIR-II emission using the PhotonEtc IR Vivo with excitation at 760, 808, 890, or 940 nm.\nCell uptake of compound 1, compound 2 and compound 3 was evaluated by incubating KLN 205 cells in 10 μM of compound 1, compound 2 and compound 3, or with DMSO for 2 hrs. Following incubation, cells were rinsed twice with ice-cold DPBS before lysing by treatment with Triton. The lysates were then transferred to a 96-well black-well clear-bottom plate and imaged for NIR-II fluorescence in the IR Vivo, as shown in FIG. 4."}, "[2]": {"assay": "Depth penetration comparisons of compound 1 vs. JAS239 and ICG through chicken breast tissue", "experimental": "Depth Penetration Comparisons of Compound 1 vs. JAS239 and ICG.\nCompound 1, JAS239, and ICG were diluted in DMSO and placed in a 96-well black-well clear-bottom plate at concentrations from 0.1 μM to 100 μM. The plate was then imaged using the PhotonEtc IR Vivo using the NIR-II emission filter with excitation at 760, 808, 890, or 940 nm. Wells were then covered with thinly sliced raw chicken breast tissue from 1 mm to 3 mm thick. Imaging was then repeated for each tissue thickness.\nChicken breast tissue was layered over wells containing varying concentrations of each fluorophore in 1 mm sections. Fluorescence in the NIR-II window was measured following excitation at 760, 808, 890, and 940 nm. […] Tissue scattering, absorption, and autofluorescence decreases at increasing wavelengths of light. Thus, the improved resolution of compound 1 with increasing wavelength of excitation laser likely resulted from improved tissue penetration of the excitation laser. Compound 1 has a maximum absorption at 970 nm resulting in strong excitation of the probe and fluorescence conversion."}, "[3]": {"conditions": "NIR-II range; cited from earlier work"}, "[4]": {"conditions": "excitation lasers 760 and 808 nm"}, "[5]": {"conditions": "excitation lasers 890 and 940 nm"}, "[6]": {"conditions": "5 μM in DMSO, excitation at 900 nm"}}, "note": "“Also recorded” adds a separate entry of the source.", "data": [{"compound": "CC1(C)C(=C/C=C/C=C/C=C/C2=[N+](CCO)c3ccccc3C2(C)C)N(CCO)c2ccccc21", "note": "[JAS239]", "values": [{"measurement": "NIR-II emissions; excitation requirement", "setting": "[1]", "result": "measurable emissions in the NIR-II window"}, {"measurement": "NIR-II emission", "setting": "[1]; [4]", "result": "strongest NIR-II emissions"}, {"measurement": "NIR-II emission", "setting": "[1]; [5]", "result": "disappeared"}]}, {"compound": "CCN1C=C/C(=C/C=C2\\CCCC(/C=C/c3cc[n+](CC)c4ccccc34)=C2Cl)c2ccccc21.[I-]", "note": "[compound 1, 4-((E)-2((E)-2-chloro-3-(2-((Z)-J-ethylquinolin-4(JH)-ylidene)-ethylidene)cyclohex-1-en-1-yl)vinyl)-J-ethylquinolin-1-ium iodide]", "values": [{"measurement": "distribution in ventral image", "setting": "Athymic Nu/Nu mice; 5 mins after injection", "result": "in the liver"}, {"measurement": "distribution in ventral image", "setting": "Athymic Nu/Nu mice; 2 hours after injection", "result": "in the throat, liver and intestines"}, {"measurement": "absorbance maxima, shift compared to compound 3", "setting": "Absorbance spectra", "result": "further shifted into the NIR-II window compared to compound 3"}, {"measurement": "maximum absorbance", "setting": "Absorbance spectra", "result": 970, "unit": "nm"}, {"measurement": "emission intensity (comparison of compounds 1, 2 and 3)", "setting": "Emission spectra; [6]", "result": "most intense emission; also recorded: highest fluorescence with an emission maximum in the NIR-II window"}, {"measurement": "emission maxima, shift compared to compound 3", "setting": "Emission spectra; [6]", "result": "further shifted into the NIR-II window compared to compound 3"}, {"measurement": "maximum emission", "setting": "Emission spectra; [6]", "result": 1010, "unit": "nm"}, {"measurement": "NIR-II fluorescence", "setting": "Emission spectra", "result": "measurable NIR-II fluorescence"}, {"measurement": "NIR-II emission compared to ICG", "setting": "[1]; IR Vivo, excited near its absorbance maximum", "result": "comparable NIR-II emissions to ICG"}, {"measurement": "NIR-II emission", "setting": "[1]; [5]", "result": "strong NIR-II signal; also recorded: only compound 1 had measurable fluorescence in the NIR-II window"}, {"measurement": "NIR-II fluorescence of cell lysates (cell uptake)", "setting": "KLN 205 cells", "result": "measurable emissions; also recorded: measurable fluorescence in the NIR-II window"}]}, {"compound": "OCCN1C=C/C(=C/C=C/C=C/C=C/c2cc[n+](CCO)c3ccccc23)c2ccccc21.[Cl-]", "note": "[compound 3, l-(2-hydroxyethyl)-4-((JE,3E,5E)-7-((Z)-J-(2-hydroxyethyl)-quinoline-4(JH)-ylidene)hepta-1,3,5-trien-1-yl)quinoline-1-ium chloride]", "values": [{"measurement": "maximum absorbance", "setting": "Absorbance spectra", "result": 942, "unit": "nm"}, {"measurement": "maximum emission", "setting": "Emission spectra; [6]", "result": 979, "unit": "nm"}, {"measurement": "NIR-II fluorescence", "setting": "Emission spectra", "result": "measurable NIR-II fluorescence"}, {"measurement": "NIR-II fluorescence of cell lysates (cell uptake)", "setting": "KLN 205 cells", "result": "no fluorescence was observed"}]}, {"compound": "4-((E)-2((E)-2-chloro-3-(2-((Z)-1-hydroxyethylquinolin-4(JH)-ylidene)-ethylidene)cyclohex-1-en-1-yl)vinyl)-1-hydroxyethylquinolin-1-ium chloride [compound 2]", "values": [{"measurement": "absorbance maxima, shift compared to compound 3", "setting": "Absorbance spectra", "result": "further shifted into the NIR-II window compared to compound 3"}, {"measurement": "maximum absorbance", "setting": "Absorbance spectra", "result": 970, "unit": "nm"}, {"measurement": "emission maxima, shift compared to compound 3", "setting": "Emission spectra; [6]", "result": "further shifted into the NIR-II window compared to compound 3"}, {"measurement": "maximum emission", "setting": "Emission spectra; [6]", "result": 1007, "unit": "nm"}, {"measurement": "NIR-II fluorescence", "setting": "Emission spectra", "result": "measurable NIR-II fluorescence"}, {"measurement": "NIR-II fluorescence of cell lysates (cell uptake)", "setting": "KLN 205 cells", "result": "measurable emissions; also recorded: measurable fluorescence in the NIR-II window"}]}, {"compound": "CC1(C)C(/C=C/C=C/C=C/C=C2\\N(CCCCS(=O)(=O)O)c3ccc4ccccc4c3C2(C)C)=[N+](CCCCS(=O)(=O)[O-])c2ccc3ccccc3c21", "note": "[ICG, indocyanine green]", "values": [{"measurement": "NIR-II emission intensity, no tissue present", "setting": "[2]", "result": "most intense emissions in the NIR-II window"}, {"measurement": "NIR-II fluorescence (background statement)", "setting": "[3]", "result": "measurable fluorescence at even longer wavelengths of light in the near-infrared II (NIR-II) range"}, {"measurement": "NIR-II emissions; excitation requirement", "setting": "[1]", "result": "measurable emissions in the NIR-II window"}, {"measurement": "NIR-II emission", "setting": "[1]; [4]", "result": "strongest NIR-II emissions"}, {"measurement": "NIR-II emission", "setting": "[1]; [5]", "result": "disappeared"}]}]}
